From US20090069373A1, “Quinoline Acids” (Wyeth, priority 2007, published 2009) come the findings set out here.

Assay [1] concerns the target T1, human LXRβ (Homo sapiens, UniProt P55055).
T1 construct: biotin (biotinylated; biotinylation tag not described); made in house; host or cells: E. coli
T1 sequence (P55055 1-460): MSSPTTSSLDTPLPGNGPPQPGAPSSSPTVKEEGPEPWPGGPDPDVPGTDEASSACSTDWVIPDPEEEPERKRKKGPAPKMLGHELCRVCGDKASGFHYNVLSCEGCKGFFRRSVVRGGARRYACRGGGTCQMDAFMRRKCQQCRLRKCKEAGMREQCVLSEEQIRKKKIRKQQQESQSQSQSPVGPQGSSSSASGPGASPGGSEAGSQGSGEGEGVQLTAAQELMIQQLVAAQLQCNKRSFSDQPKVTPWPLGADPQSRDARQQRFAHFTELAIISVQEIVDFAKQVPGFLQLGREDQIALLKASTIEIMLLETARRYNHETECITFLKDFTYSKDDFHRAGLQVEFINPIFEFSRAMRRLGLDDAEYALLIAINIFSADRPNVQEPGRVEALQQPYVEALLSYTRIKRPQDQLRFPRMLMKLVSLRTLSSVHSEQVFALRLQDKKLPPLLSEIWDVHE
The experiment in a line: Ligand-binding test procedure for human LXRβ (3H T0901317 competition, flash plates). The following applies: for Binding ratio a/b: IC50 (μM) LXRα binding/IC50 (μM) LXRβ binding; for IC50: biotinylated hLXRβ, tracer 3H T0901317.

The target of assay [2] is T2, human LXRα (Homo sapiens, UniProt Q13133).
T2 construct: biotin (biotinylated; biotinylation tag not described); made in house; host or cells: E. coli
T2 sequence (Q13133 1-447): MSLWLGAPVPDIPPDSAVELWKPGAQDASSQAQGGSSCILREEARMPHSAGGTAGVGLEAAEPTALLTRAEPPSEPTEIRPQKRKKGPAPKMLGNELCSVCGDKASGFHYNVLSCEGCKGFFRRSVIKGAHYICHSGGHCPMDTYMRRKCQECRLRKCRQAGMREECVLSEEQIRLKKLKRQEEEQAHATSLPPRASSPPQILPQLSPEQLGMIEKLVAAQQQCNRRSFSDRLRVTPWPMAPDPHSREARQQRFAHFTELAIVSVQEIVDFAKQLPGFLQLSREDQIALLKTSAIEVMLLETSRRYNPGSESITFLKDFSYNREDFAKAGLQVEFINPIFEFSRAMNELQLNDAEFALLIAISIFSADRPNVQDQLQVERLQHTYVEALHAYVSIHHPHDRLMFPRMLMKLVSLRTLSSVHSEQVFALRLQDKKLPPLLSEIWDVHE
The experiment in a line: Ligand-binding test procedure for human LXRα (3H T0901317 competition, flash plates). The settings on record: biotinylated hLXRα, tracer 3H T0901317. The gist of the method: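 Competition binding of test ligands against 5 nM ³H tracer solution (pre-mix concentration) on biotinylated hLXRα from E. coli extract, captured on streptavidin flash plates (Bmax ~4000 cpm). Ligand dilution series made in DMSO. Incubated overnight at +4 °C; bound radioactivity counted after washing.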

What is called IC50 is the concentration that inhibits the measured activity by half. High values mean lower potency, low ones higher potency. `Cc1cnc2c(C(F)(F)F)cccc2c1-c1cccc(CNc2ccc(C(=O)O)c(Cl)c2)c1` [Example 73, 2-chloro-4-({3-[3-methyl-8-(trifluoromethyl)quinolin-4-yl]benzyl}amino)benzoic acid]: the Binding ratio a/b in assay [1] is on record as 3. In addition, the IC50 in assay [1] was found to be 183 nM; in assay [2] it was 613 nM.
In the case of `Cc1cc(NCc2cccc(-c3c(Cc4ccccc4)cnc4c(C(F)(F)F)cccc34)c2)ccc1C(=O)O` [Example 75, 4-({3-[3-benzyl-8-(trifluoromethyl)quinolin-4-yl]benzyl}amino)-2-methylbenzoic acid], in assay [1], the Binding ratio a/b came to 3 and the IC50 came to 25 nM. The IC50 in assay [2] was 80 nM.
Regarding `CSCC[C@H](NC(=O)c1cccc(COc2cccc(-c3c(Cc4ccccc4)cnc4c(C(F)(F)F)cccc34)c2)c1)C(=O)O` [Example 76, N-[3-({3-[3-benzyl-8-(trifluoromethyl)quinolin-4-yl]phenoxy}methyl)benzoyl]methionine], in assay [1], the Binding ratio a/b is reported as 3 and the IC50 was found to be 318 nM. The molecule further came in with an IC50 in assay [2] of 983 nM.
On to `O=C(O)c1cc2cccc(NCc3cccc(-c4c(Cc5ccccc5)cnc5c(C(F)(F)F)cccc45)c3)c2[nH]1` [Example 77, 7-({3-[3-benzyl-8-(trifluoromethyl)quinolin-4-yl]benzyl}amino)-1H-indole-2-carboxylic acid], for which, in assay [1], the Binding ratio a/b was 3 and the IC50 came to 408 nM. In assay [2], this molecule came in with an IC50 of 1250 nM.
Consider `O=C(O)c1cc2ccccc2cc1NCc1cccc(-c2c(Cc3ccccc3)cnc3c(C(F)(F)F)cccc23)c1` [Example 78, 3-({3-[3-benzyl-8-(trifluoromethyl)quinolin-4-yl]benzyl}amino)-2-naphthoic acid], for which, in assay [1], the Binding ratio a/b is listed as 3 and the IC50 came out at 666 nM. The same molecule gave an IC50 in assay [2] of 1990 nM.
Taken in the same sequence, the figures for `Cn1cc(C(=O)O)c2cc(NCc3cccc(-c4c(Cc5ccccc5)cnc5c(C(F)(F)F)cccc45)c3)ccc21` [Example 79, 5-({3-[3-benzyl-8-(trifluoromethyl)quinolin-4-yl]benzyl}amino)-1-methyl-1H-indole-3-carboxylic acid] were 3, 629 nM and 1820 nM.
On to `Cc1cnc2c(C(F)(F)F)cccc2c1-c1cccc(CNc2cccc3c(C(=O)O)cccc23)c1` [Example 80, 5-({3-[3-methyl-8-(trifluoromethyl)quinolin-4-yl]benzyl}amino)-1-naphthoic acid], for which, in assay [1], the Binding ratio a/b was determined as 3. Moreover, the IC50 in assay [1] came to 129 nM; in assay [2] it was 374 nM.
Taken in the same sequence, the figures for `CC(C)C[C@H](NC(=O)c1ccc(COc2cccc(-c3c(Cc4ccccc4)cnc4c(C(F)(F)F)cccc34)c2)cc1)C(=O)O` [Example 81, N-[4-({3-[3-benzyl-8-(trifluoromethyl)quinolin-4-yl]phenoxy}methyl)benzoyl]leucine] were 3, 236 nM and 654 nM.
Regarding `O=C(O)c1cc(NCc2cccc(-c3c(Cc4ccccc4)cnc4c(C(F)(F)F)cccc34)c2)ccc1Cl` [Example 82, 5-({3-[3-benzyl-8-(trifluoromethyl)quinolin-4-yl]benzyl}amino)-2-chlorobenzoic acid], in assay [1], the Binding ratio a/b is 3 and the IC50 is 523 nM. In addition, in assay [2], the IC50 is 1450 nM.
The corresponding values for `O=C(O)c1c[nH]c2c(NCc3cccc(-c4c(Cc5ccccc5)cnc5c(C(F)(F)F)cccc45)c3)cccc12` [Example 83, 7-({3-[3-benzyl-8-(trifluoromethyl)quinolin-4-yl]benzyl}amino)-1H-indole-3-carboxylic acid] are 3, 292 nM and 802 nM.
`O=C(O)c1ccc(OCc2cccc(-c3c(Cc4ccccc4)cnc4c(C(F)(F)F)cccc34)c2)c(F)c1` [Example 84, 4-({3-[3-benzyl-8-(trifluoromethyl)quinolin-4-yl]benzyl}oxy)-3-fluorobenzoic acid]: in assay [1], the Binding ratio a/b was 3 and the 50% inhibitory concentration (IC50) came to 319 nM. In assay [2], this molecule returned an IC50 of 864 nM.
Take `O=C(O)c1ccc(OCc2cccc(-c3c(Cc4ccccc4)cnc4c(C(F)(F)F)cccc34)c2)c(Cl)c1` [Example 85, 4-({3-[3-benzyl-8-(trifluoromethyl)quinolin-4-yl]benzyl}oxy)-3-chlorobenzoic acid]: in assay [1], the Binding ratio a/b is 3. The values for the concentration for half-maximal inhibition (IC50) in assay [1] and in assay [2] were 359 nM and 966 nM, respectively.
The corresponding values for `O=C(O)Cc1cccc2ccc(OCc3cccc(-c4c(Cc5ccccc5)cnc5c(C(F)(F)F)cccc45)c3)cc12` [Example 86, [7-({3-[3-benzyl-8-(trifluoromethyl)quinolin-4-yl]benzyl}oxy)-1-naphthyl]acetic acid] are 3, 374 nM and 997 nM.
Taken in the same sequence, the figures for `O=C(O)c1ccc(NCc2cccc(-c3c(Cc4ccccc4)cnc4c(C(F)(F)F)cccc34)c2)cc1Cl` [Example 87, 4-({3-[3-benzyl-8-(trifluoromethyl)quinolin-4-yl]benzyl}amino)-2-chlorobenzoic acid] were 3, 28 nM and 72 nM.
Taken in the same sequence, the figures for `Cc1cc(CC(=O)O)cc(NCc2cccc(-c3c(C)cnc4c(C(F)(F)F)cccc34)c2)c1C` [Example 88, [3,4-dimethyl-5-({3-[3-methyl-8-(trifluoromethyl)quinolin-4-yl]benzyl}amino)phenyl]acetic acid] were 2, 12700 nM and 31600 nM.
Consider `O=C(O)c1c(F)cccc1OCc1cccc(-c2c(Cc3ccccc3)cnc3c(C(F)(F)F)cccc23)c1` [Example 89, 2-({3-[3-benzyl-8-(trifluoromethyl)quinolin-4-yl]benzyl}oxy)-6-fluorobenzoic acid], for which the Binding ratio a/b in assay [1] amounted to 2. Moreover, the values for the IC50 in assay [1] and in assay [2] were 1600 nM and 3980 nM, respectively.
Taken in the same sequence, the figures for `O=C(O)c1cccc(COc2cccc(-c3c(Cc4ccccc4)cnc4c(C(F)(F)F)cccc34)c2)c1` [Example 90, 3-({3-[3-benzyl-8-(trifluoromethyl)quinolin-4-yl]phenoxy}methyl)benzoic acid] were 2, 358 nM and 872 nM.
`O=C(O)c1ccc(Cl)cc1NCc1cccc(-c2c(Cc3ccccc3)cnc3c(C(F)(F)F)cccc23)c1` [Example 91, 2-({3-[3-benzyl-8-(trifluoromethyl)quinolin-4-yl]benzyl}amino)-4-chlorobenzoic acid]: in assay [1], the Binding ratio a/b was 2. Further, the IC50 in assay [1] turned out to be 477 nM; in assay [2], 1080 nM.
Taken in the same sequence, the figures for `O=C(O)c1ccc(F)c(OCc2cccc(-c3c(Cc4ccccc4)cnc4c(C(F)(F)F)cccc34)c2)c1` [Example 92, 3-({3-[3-benzyl-8-(trifluoromethyl)quinolin-4-yl]benzyl}oxy)-4-fluorobenzoic acid] were 2, 570 nM and 1280 nM.
The corresponding values for `Cc1cccc(NCc2cccc(-c3c(Cc4ccccc4)cnc4c(C(F)(F)F)cccc34)c2)c1C(=O)O` [Example 93, 2-({3-[3-benzyl-8-(trifluoromethyl)quinolin-4-yl]benzyl}amino)-6-methylbenzoic acid] are 2, 906 nM and 2000 nM.
Taken in the same sequence, the figures for `Cc1ccc(C(=O)O)cc1NCc1cccc(-c2c(Cc3ccccc3)cnc3c(C(F)(F)F)cccc23)c1` [Example 94, 3-({3-[3-benzyl-8-(trifluoromethyl)quinolin-4-yl]benzyl}amino)-4-methylbenzoic acid] were 2, 1370 nM and 3010 nM.
For the molecule `O=C(O)c1ccc2ccccc2c1OCc1cccc(-c2c(Cc3ccccc3)cnc3c(C(F)(F)F)cccc23)c1` [Example 95, 1-({3-[3-benzyl-8-(trifluoromethyl)quinolin-4-yl]benzyl}oxy)-2-naphthoic acid], the Binding ratio a/b in assay [1] was found to be 2. Besides, the IC50 in assay [1] was determined as 1030 nM; in assay [2], 2220 nM.
